Results as given in patent US4607024A, “Epoxypropylphosphonate salt of jesamycin and pharmaceutical composition containing same” (Schering S.p.A., priority 1983, dated 1986).
Counter-ions that a name gives are not always drawn. Like-named read-outs stand apart in the source and are kept apart here.

How the values were obtained:
[1] = design: species or system New Zealand rabbits; details: rabbit, in vivo, po; for haematic levels of Josamycin at the 6th hour: 6 h
Protocol: The determination of the Josamycin levels was performed both by biological way (Grove, D. C., and Randall, W. A., 1955) and by High Pressure Liquid Chromatography (HPLC).

[2] = Toxicity (general statement)
[3] = system: male Wistar rats; assay: Chronic toxicity, 3 months; type: in vivo; details: 250 mg/kg daily oral or 50 mg/kg daily subcutaneous, body weight, haematic crasis, urinary elimination, biochemical parameters, anatomo-pathology
Protocol: Three groups of male Wistar rats (average weight: 155 g) were used in this experiment. A first group received a daily dosage of 250 mg/kg of the compound to be tested by oral route, a second group received a daily amount of 50 mg/kg of the same substance by subcutaneous route, a third group (controls) received nothing. The experiment was carried on for 3 consecutive months.
Since the beginning, as well as during and after the treatment, the animals were constantly monitored with respect to the increase in body weight, the haematic crasis, the urinary elimination and various biochemical parameters. At the end of the treatment, all the animals were sacrificed and subjected to anatomo-pathological investigations.

[4] = system: Josamycin-sensitive bacteria; assay: Antibacterial spectrum in vitro, agar dilution method; type: cell-based; details: versus Josamycin
[5] = in vivo; design: species or system Swiss mice of both sexes; details: mouse, mice
Protocol: (§1) The acute toxicity of the compound of the invention was determined on mice and rats (Swiss mice of both sexes and Wistar rats of both sexes), after oral and intravenous administration of the compound of the invention. It was expressed as an LD50 value, calculated according to the method of Lichtfield and Wilcoxon. The obtained intravenous values were 418 mg/kg in rats and 386 mg/kg in mice.

[6] = system: pregnant rabbits; assay: Teratological investigation in pregnant rabbits; type: in vivo; details: 50 mg/kg s.c. or 300 mg/kg p.o. daily, 7th to 15th day of pregnancy
[7] = system: pregnant rats; assay: Teratological investigation in pregnant rats; type: in vivo; details: 50 mg/kg s.c. or 300 mg/kg p.o. daily, 1st to 15th day of pregnancy
[8] = Absorption, haematic and tissue levels (general statement); type: in vivo
[9] = system: newborns; assay: Neonatal investigation (growth and survival of the newborns); type: in vivo; details: 30 days from birth, versus controls
[10] = system: Josamycin-sensitive bacteria; assay: Antibacterial spectrum in vivo, infected mice; details: versus Josamycin
[11] = in vivo; design: species or system Wistar rats of both sexes; details: rat, rats
Protocol: as §1

[12] = Solubility in water; type: physicochemical
[13] = system: Josamycin-sensitive bacteria; assay: Antibacterial spectrum (general statement); details: versus Josamycin
[14] = oral, could not be determined, no deaths up to 5000 mg/kg, read-out: oral LD50

SMILES	haematic levels of Josamycin at the 6th hour [1] [µg/mL]	toxicity [2]	alteration of toxic character [3]	antibacterial spectrum [4]	LD50 ([5]; intravenous, read-out: LD50) [mg/kg]	LD50 [5, 14] [mg/kg]	alteration of the normal embrional or fetal development [6]	alteration of the normal embrional or fetal development [7]	absorption ([8]; oral route)	duration of tissue and haematic levels ([8]; oral route)	tissue and haematic levels relative to equivalent amounts of Josamycin ([8]; oral, versus free base and propionate)	haematic levels of Josamycin relative to equivalent dosages of Josamycin ([8]; versus free base and propionate)	growth and survival of the newborns [9]	antibacterial spectrum [10]	LD50 ([11]; intravenous, read-out: LD50) [mg/kg]	LD50 [11, 14] [mg/kg]	solubility in water [12]	antibacterial spectrum [13]	duration of haematic levels [1]
CO[C@@H]1[C@@H](O[C@@H]2O[C@H](C)[C@@H](O[C@H]3C[C@@](C)(O)[C@@H](OC(=O)CC(C)C)[C@H](C)O3)[C@H](N(C)C)[C@H]2O)[C@@H](CC=O)C[C@@H](C)[C@@H](O)/C=C/C=C/C[C@@H](C)OC(=O)C[C@H]1OC(C)=O [Josamycin, reference compound]	0.139	–	–	–	–	–	–	–	–	–	–	–	–	–	–	–	–	–	–
CO[C@@H]1[C@@H](O[C@@H]2O[C@H](C)[C@@H](O[C@H]3C[C@@](C)(O)[C@@H](OC(=O)CC(C)C)[C@H](C)O3)[C@H](N(C)C)[C@H]2O)[C@@H](CC=O)C[C@@H](C)[C@@H](O)/C=C/C=C/C[C@@H](C)OC(=O)C[C@H]1OC(C)=O [salt of formula (I), salt of the macrolide antibiotic Josamycin with (-)-cis-1,2-epoxypropyl phosphonic acid]	0.297	very little toxic	did not reveal any alteration of toxic character	comparable with that of Josamycin	386	> 5000	did not cause any alteration of the normal embrional or fetal development	did not cause any alteration of the normal embrional or fetal development	highly absorbed	significantly long lasting	nearly twice	twice	comparable with those of the controls	comparable with that of Josamycin	418	> 5000	high solubility in water	comparable with that of Josamycin	longer lasting
